# Measurements as given in patent publication US6130239A, “4-Alkenyl- and 4-alkynyloxindoles” (Hoffmann-La Roche Inc., priority 1999, dated 2000).
# Structures can show the parent of a compound that is named as a salt.
# Legend:
# Cyclin E/CDK2 = target: T1, Cyclin E/CDK2 (Homo sapiens, UniProt P24941); assay: CDK2 FlashPlate Assay (inhibition of Rb phosphorylation by Cyclin E/CDK2); assay type: biochemical; conditions: for IC50: Table IA, recombinant human Cyclin E/CDK2, Rb substrate, 25 minutes room temperature
# T1 construct: made in house; host or cells: insect cells
# MDA-MB-435 = assay: Cell-based antiproliferative (MTT) assay, MDA-MB-435 breast carcinoma line; conditions: Homo sapiens, MDA-MB-435, 120 h; 5 days post addition of test compound; mostly one experiment, average where repeated; read-out: MDA-MB435 IC50
# Procedure: The estrogen receptor negative epithelial breast carcinoma line (MDA-MB-435) was purchased from American Type Cell Culture Collection (ATCC; Rockville, Md.) and was grown in the medium recommended by ATCC. For analysis of the effect of the test compounds on growth of these cells, the cells were plated at 2000 cells per well in a 96-well tissue culture plate, and were incubated overnight at 37° C. with 5% CO2. The next day, the test compounds were dissolved in 100% dimethyl sulfoxide (DMSO) to yield a 10 mM stock solution. Each compound was diluted with sterile medium to 1 mM in a sufficient quantity to yield a final concentration of 120 μM. The compounds were then serially diluted in medium with 1.2% DMSO. One-fourth final volume of the diluted compounds was transferred to 96 well plates. Test compounds were assayed in duplicate. DMSO was added to a row of "control cells" such that the final concentration of DMSO in each well was 0.3%. Wells to which no cells were added served as the "blank." Wells to which no inhibitor was added served as "no inhibitor control". The plates were returned to the incubator, and 5 days post addition of test compound, were analyzed as described below. […] MTT) was added to each well to yield a final concentration of 1 mg/mL. The plates were then incubated at 37° C. for 3 hours. The plates were centrifuged at 1000 rpm for 5 minutes prior to aspiration of the MTT-containing medium. The MTT-containing medium was then removed and 100 μL 100% ethanol was added to each well to dissolve the resulting formazan metabolite. To ensure complete dissolution, plates were shaken for 15 minutes at room temperature. Absorbencies were read in a microtiter plate reader (Molecular Dynamics) at a wavelength of 570 nm with a 650 nm reference. Percent inhibition was calculated by subtracting the absorbance of the blank (no cell) wells from all wells, then subtracting the division of the average absorbance of each test duplicate by the average of the controls from 1.00. Inhibitory concentrations (IC50) were determined from the linear regression of a plot of the logarithm of the concentration versus the percent inhibition.
SMILES,"inhibition at 1 µM (Cyclin E/CDK2; Table IB, concentration ≤1.0 μM) [%]",IC50 (MDA-MB-435) [µM],IC50 (Cyclin E/CDK2) [µM]
"COC(=O)NCC#Cc1c(F)ccc2c1/C(=C/c1[nH]cnc1C)C(=O)N2 [YY, (Z)-[3-[2,3-Dihydro-5-fluoro-3-[(4-methyl-1H-imidazol-5-yl)methylene]-2-oxo-1H-indol-4-yl]-2-propynyl]carbamic acid methyl ester]",> 90,< 3.5,–
"Cc1nc[nH]c1/C=C1\C(=O)Nc2ccc(F)c(C#CCN3CCOCC3)c21 [XX, (Z)-1,3-Dihydro-5-fluoro-3-[(4-methyl-1H-imidazol-5-yl)methylene]-4-[3-(4-morpholinyl)-1-propynyl]-2H-indol-2-one]",–,< 3.5,< 4
"CCOC(=O)C(CC#Cc1c(F)ccc2c1/C(=C/c1[nH]cnc1C)C(=O)N2)NC(C)=O (racemic) [AAA, rac-(Z)-2-(Acetylamino)-5-[5-fluoro-2,3,dihydro-3-[(4-methyl-1H-imidazol-5-yl)methylene]-2-oxo-1H-indol-4-yl]-4-pentynoic acid ethyl ester]",–,< 3.5,< 4
"Cc1nc[nH]c1/C=C1\C(=O)Nc2ccc(F)c(C#CCO)c21 [QQ, (Z)-1,3-Dihydro-5-fluoro-4-(3-hydroxy-1-propynyl)-3-[(4-methyl-1H-imidazol-5-yl)methylene]-2H-indol-2-one, trifluoroacetate salt]",–,< 3.5,< 4
"Cc1nc[nH]c1/C=C1\C(=O)Nc2ccc(F)c(C#CC(C)(C)N)c21 [VV, (Z)-4-[3-Amino-3-methyl-1-butynyl]-1,3-dihydro-5-fluoro-3-[(4-methyl-1H-imidazol-5-yl)methylene]-2H-indol-2-one]",–,< 3.5,< 4
"CCN(CC)CC#Cc1c(F)ccc2c1/C(=C/c1[nH]cnc1C)C(=O)N2 [Compound BBB, (Z)-4-[3-(N,N-Diethylamino)-1-propynyl]-1,3-dihydro-5-fluoro-3-[(4-methyl-1H-imidazol-5-yl)methylene]-2H-indol-2-one]",–,< 3.5,< 4
"Cc1nc[nH]c1/C=C1\C(=O)Nc2ccc(F)c(C#CCOC(N)=O)c21 [WW, (Z)-Carbamic acid 3-[2,3-dihydro-3-[(4-methyl-1H-imidazol-5-yl)methylene]-5-fluoro-2-oxo-1H-indol-4-yl]-2-propynyl ester]",–,< 3.5,< 4
"Cc1nc[nH]c1/C=C1\C(=O)Nc2ccc(F)c(C#CCC(C)O)c21 (racemic) [TT, rac-(Z)-1,3-Dihydro-5-fluoro-4-(4-hydroxy-1-pentynyl)-3-[(4-methyl-1H-imidazol-5-yl)methylene]-2H-indol-2-one, trifluoroacetate salt]",–,< 3.5,< 4
"Cc1nc[nH]c1/C=C1\C(=O)Nc2ccc(F)c(C#CCN(C)C)c21 [UU, (Z)-1,3-Dihydro-4-[3-(N,N-dimethylamino)-1-propynyl]-5-fluoro-3-[(4-methyl-1H-imidazol-5-yl)methylene]-2H-indol-2-one]",–,< 3.5,< 4
